The results in this text go back to patent US20050281814A1, “Combination radiation therapy and chemotherapy in conjunction with administration of growth factor receptor antibody” (priority 2000, published 2005).

Each structure is given as a SMILES string.

Assay [1] deals with MiaPaCa-2 cells. Kind of assay: Apoptotic cell death in vitro (annexin V-FITC), MiaPaCa-2. The assay is classed as cell-based, human. The following applies: MiaPaCa-2, p-value<0.05; not enhanced by any other treatment. The text has this:
Early stages of apoptosis were identified using an annexin V-FITC apoptosis detection kit (BioVision Research Products, Palo Alto, Calif.). In studies of radiation cell survival assays, survival data was fitted to the linear quadratic (LQ) and single hit multi-target (SHMT) radiobiological models using Fit v. 2.4 software kindly provided by Dr. N. Albright, University of California at San Francisco.
(§1) Various combinations of treatment modality were studied in vitro.

Assay [2] concerns Mia-PaCa-2 human pancreatic cancer cells. Kind of assay: MiaPaCa-2 xenograft tumor therapy study with IMC-C225, gemcitabine and radiation. The assay is classed as in vivo, athymic nude mice. The following applies: s.c. Mia-PaCa-2 tumors, n=8/group, RT 3 Gy q6d.
Description: Athymic nude mice were implanted subcutaneously with 2×10^7 Mia-PaCa-2 cells mixed with Matrigel.
MiaPaCa-2 cells were mixed with Matrigel (1:1) and 2×10^7 cells injected s.c. into athymic nude mice on day 0. […] Four groups of mice received gemcitabine (120 mg/kg) i.v. on days 23, 29, 35, 41, 47, and 54. In four groups of mice, tumors were exposed to six fractions of 3 Gy ^60Co radiation on days 24, 30, 36, 42, 48, and 55. The results are presented as the change in tumor size relative to baseline size on day 22. The MiaPaCa-2 experiment was terminated after 333 days.
In the animal model tumor therapy studies, multiple endpoints were examined and appropriate statistical tests were conducted to address differences between treatment groups with respect to each endpoint. The endpoints included, the size of the tumor, which was computed for each tumor at each time period, percent of original tumor size, computed for each tumor at each time point after baseline, regression, time to regression, and time that the tumor size reached twice the original tumor size (time to double). Inferences are made on the true median rather than the mean response, i.e. median tumor size or median time to double in size.
In the next assay the test system is BxPC-3 cells. Kind of assay: In vitro cell proliferation, BxPC-3. The assay is classed as cell-based, human.
Assay [3] has as its system MiaPaCa-2 cells. Kind of assay: In vitro cell proliferation, MiaPaCa-2. The assay is classed as cell-based, human.
Excerpt: as §1

For a further assay, the system named is SW948 cells. The experiment in a line: SW948 colon tumor xenograft study with IMC-C225, CPT-11 and RT. The assay is classed as in vivo, athymic nude mice. The following applies: s.c. SW948 tumors, n=7/group, RT 3 Gy q6d.

As for `Nc1ccn([C@@H]2O[C@H](CO)[C@@H](O)C2(F)F)c(=O)n1` [gemcitabine], the apoptotic cell death entry with MiaPaCa-2 cells [1] is “small but significant increase”. In addition, the “mean tumor size doubling time” value in assay [2] (IMC-C225 1 mg q3d×12, GEM 120 mg/kg q6d) was 22 days. The complete tumor regressions in assay [2] (IMC-C225 1 mg q3d×12 i.p., GEM 120 mg/kg q6d, regressions/animals) is given as 0/8. Further, the “cell proliferation, combination of radiation (3 Gy) and gemcitabine” value in the assay on BxPC-3 cells (BxPC-3) and with MiaPaCa-2 cells [3] (MiaPaCa-2) was “decrease in cell proliferation” throughout. For the same compound, the “inhibition of cell growth” value is “approximately 55%” in the assay on BxPC-3 cells (BxPC-3, 24 h exposure to the IC50 dose of gemcitabine) and “approximately 45%” in the assay with MiaPaCa-2 cells [3] (MiaPaCa-2, 24 h exposure to the IC50 dose of gemcitabine).
Take `CCc1c2c(nc3ccc(OC(=O)N4CCC(N5CCCCC5)CC4)cc13)-c1cc3c(c(=O)n1C2)COC(=O)[C@]3(O)CC` [CPT-11, irinotecan]: in the assay with SW948 cells (IMC-C225 1 mg q3d×12, CPT-11 33 mg/kg q4d), the “mean tumor size doubling time” value is reported as 57 days. Also, in the assay on SW948 cells (IMC-C225 1 mg q3d×12 i.p., CPT-11 33 mg/kg i.v. q4d, regressions/animals), the complete tumor regressions was 0/7.
